# Reference: patent US20230278972A1, “SUBSTITUTED HALOALKYL SULFONANILIDE HERBICIDES” (FMC Corporation, priority 2020, published 2023)
# Columns and labels:
# Type in all cases: in vivo
# [1] = test system: blackgrass (Alopecurus myosuroides); assay: Test A postemergence, blackgrass; settings: Postemergence, 0 to 100 scale (0 no effect, 100 complete control); for Blackgrass plant response rating: visual injury vs untreated controls after approx. 10 days
# Source text: (§1) Seeds of plant species selected from barnyardgrass (Echinochloa crus-galli), kochia (Bassia scoparia), ragweed (common ragweed, Ambrosia artemisiifolia), Ryegrass, Italian (Italian ryegrass, Lolium multiflorum), Foxtail, Giant (giant foxtail, Setaria faberi), and pigweed (Amaranthus retroflexus) were planted into a blend of loam soil and sand and treated preemergence with a directed soil spray using test chemicals formulated in a non-phytotoxic solvent mixture which included a surfactant. At the same time, plants selected from these weed species and also wheat (Triticum aestivum), corn (Zea mays), blackgrass (Alopecurus myosuroides), and galium (catchweed bedstraw, Galium aparine) were planted in pots containing the same blend of loam soil and sand and treated with postemergence applications of test chemicals formulated in the same manner. Plants ranged in height from 2 to 10 cm and were in the one- to two-leaf stage for the postemergence treatment. […] A dash (-) response means no test result.
# [2] = test system: pigweed (Amaranthus retroflexus); assay: Test A postemergence, pigweed; settings: Postemergence, 0 to 100 scale (0 no effect, 100 complete control); for Pigweed plant response rating: visual injury vs untreated controls after approx. 10 days
# Source text: as §1
# [3] = test system: ragweed (common ragweed, Ambrosia artemisiifolia); assay: Test A preemergence, ragweed; settings: Preemergence; for Ragweed plant response rating: visual injury on 0 to 100 scale (0 no effect, 100 complete control), approximately 10 days; for Plant response rating, Ragweed: 0 to 100 scale (0 no effect, 100 complete control)
# Source text: as §1
# corn (Zea mays) = assay: Test A postemergence, corn; settings: Postemergence, 0 to 100 scale (0 no effect, 100 complete control); for Corn plant response rating: visual injury vs untreated controls after approx. 10 days
# Source text: as §1
# [4] = test system: barnyardgrass (Echinochloa crus-galli); assay: Test A preemergence, barnyardgrass; settings: Preemergence; for Barnyardgrass plant response rating: visual injury on 0 to 100 scale (0 no effect, 100 complete control), approximately 10 days; for Plant response rating, Barnyardgrass: 0 to 100 scale (0 no effect, 100 complete control)
# Source text: as §1
# [5] = test system: Ryegrass, Italian (Italian ryegrass, Lolium multiflorum); assay: Test A postemergence, Ryegrass, Italian; settings: Postemergence, 0 to 100 scale (0 no effect, 100 complete control); for Ryegrass, Italian plant response rating: visual injury vs untreated controls after approx. 10 days
# Source text: as §1
# [6] = test system: Foxtail, Giant (giant foxtail, Setaria faberi); assay: Test A preemergence, Foxtail, Giant; settings: Preemergence; for Foxtail, Giant plant response rating: visual injury on 0 to 100 scale (0 no effect, 100 complete control), approximately 10 days; for Plant response rating, Foxtail, Giant: 0 to 100 scale (0 no effect, 100 complete control)
# Source text: as §1
# kochia (Bassia scoparia) [7] = assay: Test A postemergence, kochia; settings: Postemergence, 0 to 100 scale (0 no effect, 100 complete control); for Kochia plant response rating: visual injury vs untreated controls after approx. 10 days
# Source text: as §1
# [8] = test system: galium (catchweed bedstraw, Galium aparine); assay: Test A postemergence, galium; settings: Postemergence, 0 to 100 scale (0 no effect, 100 complete control); for Galium plant response rating: visual injury vs untreated controls after approx. 10 days
# Source text: as §1
# [9] = test system: Ryegrass, Italian (Italian ryegrass, Lolium multiflorum); assay: Test A preemergence, Ryegrass, Italian; settings: Preemergence; for Ryegrass, Italian plant response rating: visual injury on 0 to 100 scale (0 no effect, 100 complete control), approximately 10 days; for Plant response rating, Ryegrass, Italian: 0 to 100 scale (0 no effect, 100 complete control)
# Source text: as §1
# [10] = test system: barnyardgrass (Echinochloa crus-galli); assay: Test A postemergence, barnyardgrass; settings: Postemergence, 0 to 100 scale (0 no effect, 100 complete control); for Barnyardgrass plant response rating: visual injury vs untreated controls after approx. 10 days
# Source text: as §1
# [11] = test system: ragweed (common ragweed, Ambrosia artemisiifolia); assay: Test A postemergence, ragweed; settings: Postemergence, 0 to 100 scale (0 no effect, 100 complete control); for Ragweed plant response rating: visual injury vs untreated controls after approx. 10 days
# Source text: as §1
# kochia (Bassia scoparia) [12] = assay: Test A preemergence, kochia; settings: Preemergence; for Kochia plant response rating: visual injury on 0 to 100 scale (0 no effect, 100 complete control), approximately 10 days; for Plant response rating, Kochia: 0 to 100 scale (0 no effect, 100 complete control)
# Source text: as §1
# [13] = test system: wheat (Triticum aestivum); assay: Test A postemergence, wheat; settings: Postemergence, 0 to 100 scale (0 no effect, 100 complete control); for Wheat plant response rating: visual injury vs untreated controls after approx. 10 days
# Source text: as §1
# [14] = test system: Foxtail, Giant (giant foxtail, Setaria faberi); assay: Test A postemergence, Foxtail, Giant; settings: Postemergence, 0 to 100 scale (0 no effect, 100 complete control); for Foxtail, Giant plant response rating: visual injury vs untreated controls after approx. 10 days
# Source text: as §1
# [15] = 500 g ai/ha, visual injury approx. 10 days
# [16] = 125 g ai/ha, visual injury, approx. 10 days
SMILES,"Plant response rating, Blackgrass ([1]; 125 g ai/ha)",Blackgrass plant response rating ([1]; 500 g ai/ha),"Plant response rating, Pigweed ([2]; 125 g ai/ha)",Pigweed plant response rating ([2]; 500 g ai/ha),Ragweed plant response rating ([3]; 125 g ai/ha),"Plant response rating, Ragweed ([3]; 500 g ai/ha)","Plant response rating, Corn (corn (Zea mays); 125 g ai/ha)",Corn plant response rating (corn (Zea mays); 500 g ai/ha),Barnyardgrass plant response rating ([4]; 125 g ai/ha),"Plant response rating, Barnyardgrass ([4]; 500 g ai/ha)","Plant response rating, Ryegrass, Italian ([5]; 125 g ai/ha)","Ryegrass, Italian plant response rating ([5]; 500 g ai/ha)","Foxtail, Giant plant response rating ([6]; 125 g ai/ha)","Plant response rating, Foxtail, Giant ([6]; 500 g ai/ha)","Plant response rating, Kochia (kochia (Bassia scoparia) [7]; 125 g ai/ha)","Plant response rating, Galium ([8]; 125 g ai/ha)","Plant response rating, Barnyardgrass ([10]; 125 g ai/ha)","Plant response rating, Ragweed ([11]; 125 g ai/ha)","Plant response rating, Wheat ([13]; 125 g ai/ha)","Plant response rating, Foxtail, Giant ([14]; 125 g ai/ha)",also measured
Cc1cc(C(F)(F)F)c(NS(=O)(=O)C(F)(F)F)cc1C(=O)N1CCCCC1 [Compound 165],0,10,60,90,50,100,0,0,20,30,0,30,80,90,10,80,0,0,0,0,"Kochia plant response rating (kochia (Bassia scoparia) [7]; 500 g ai/ha): 60; Galium plant response rating ([8]; 500 g ai/ha): 90; Ryegrass, Italian plant response rating ([9]; 125 g ai/ha): 50; Plant response rating, Ryegrass, Italian ([9]; 500 g ai/ha): 70; Barnyardgrass plant response rating ([10]; 500 g ai/ha): 30; Ragweed plant response rating ([11]; 500 g ai/ha): 60; Kochia plant response rating (kochia (Bassia scoparia) [12]; 125 g ai/ha): 90; Plant response rating, Kochia (kochia (Bassia scoparia) [12]; 500 g ai/ha): 100; Wheat plant response rating ([13]; 500 g ai/ha): 0; Foxtail, Giant plant response rating ([14]; 500 g ai/ha): 0"
CC(=O)N(c1cc(N2CCC3(CCCCC3)C2=O)c(C)cc1C)S(=O)(=O)C(F)(F)F [Compound 265],30,–,60,–,–,–,20,–,–,–,20,–,–,–,40,90,60,60,30,0,"Plant response rating, Blackgrass [1, 15]: 20; Plant response rating, Pigweed [2, 15]: 90; Plant response rating, Ragweed [3, 16]: 90; Ragweed plant response rating ([3]; 500 g ai/ha): 90; Plant response rating, Corn (corn (Zea mays); [15]): 60; Plant response rating, Barnyardgrass [4, 16]: 90; Barnyardgrass plant response rating ([4]; 500 g ai/ha): 100; Plant response rating, Ryegrass, Italian [5, 15]: 70; Plant response rating, Foxtail, Giant [6, 16]: 100; Foxtail, Giant plant response rating ([6]; 500 g ai/ha): 100; Plant response rating, Kochia (kochia (Bassia scoparia) [7]; [15]): 50; Plant response rating, Galium [8, 15]: 90; Plant response rating, Ryegrass, Italian [9, 16]: 90; Ryegrass, Italian plant response rating ([9]; 500 g ai/ha): 100; Plant response rating, Barnyardgrass [10, 15]: 80; Plant response rating, Ragweed [11, 15]: 80; Plant response rating, Kochia (kochia (Bassia scoparia) [12]; [16]): 90; Kochia plant response rating (kochia (Bassia scoparia) [12]; 500 g ai/ha): 90; Plant response rating, Wheat [13, 15]: 60; Plant response rating, Foxtail, Giant [14, 15]: 20"
COC(=O)N(c1cc(N2CCC3(CCCCC3)C2=O)c(C)cc1C)S(=O)(=O)C(F)(F)F [Compound 266],30,–,0,–,–,–,0,–,–,–,0,–,–,–,0,30,0,0,0,0,"Plant response rating, Blackgrass [1, 15]: 0; Plant response rating, Pigweed [2, 15]: 0; Plant response rating, Ragweed [3, 16]: 0; Ragweed plant response rating ([3]; 500 g ai/ha): 0; Plant response rating, Corn (corn (Zea mays); [15]): 0; Plant response rating, Barnyardgrass [4, 16]: 0; Barnyardgrass plant response rating ([4]; 500 g ai/ha): 40; Plant response rating, Ryegrass, Italian [5, 15]: 0; Plant response rating, Foxtail, Giant [6, 16]: 0; Foxtail, Giant plant response rating ([6]; 500 g ai/ha): 20; Plant response rating, Kochia (kochia (Bassia scoparia) [7]; [15]): 10; Plant response rating, Galium [8, 15]: 90; Plant response rating, Ryegrass, Italian [9, 16]: 0; Ryegrass, Italian plant response rating ([9]; 500 g ai/ha): 0; Plant response rating, Barnyardgrass [10, 15]: 20; Plant response rating, Ragweed [11, 15]: 10; Plant response rating, Kochia (kochia (Bassia scoparia) [12]; [16]): 0; Kochia plant response rating (kochia (Bassia scoparia) [12]; 500 g ai/ha): 0; Plant response rating, Wheat [13, 15]: 0; Plant response rating, Foxtail, Giant [14, 15]: 0"
Cc1cc(C)c(C2=NOC3(CCC(F)(F)CC3)C2)cc1NS(=O)(=O)C(F)(F)F [Compound 172],0,40,70,90,40,90,40,70,90,90,60,80,90,100,40,90,60,60,30,20,"Kochia plant response rating (kochia (Bassia scoparia) [7]; 500 g ai/ha): 80; Galium plant response rating ([8]; 500 g ai/ha): 90; Ryegrass, Italian plant response rating ([9]; 125 g ai/ha): 100; Plant response rating, Ryegrass, Italian ([9]; 500 g ai/ha): 100; Barnyardgrass plant response rating ([10]; 500 g ai/ha): 80; Ragweed plant response rating ([11]; 500 g ai/ha): 80; Kochia plant response rating (kochia (Bassia scoparia) [12]; 125 g ai/ha): 60; Plant response rating, Kochia (kochia (Bassia scoparia) [12]; 500 g ai/ha): 90; Wheat plant response rating ([13]; 500 g ai/ha): 70; Foxtail, Giant plant response rating ([14]; 500 g ai/ha): 80"
